# Results from patent US9164105B2, “Pancreatic cancer biomarker using the characteristics of pancreatic cancer stem cells, and use thereof” (INDUSTRY-ACADEMIC COOPERATION FOUNDATION, YONSEI UNIVERSITY, priority 2012, dated 2015).
# Columns and labels:
# Type in all cases: cell-based, human
# Hpac-spheres = test: Inhibition of sphere formation by stem cell signaling inhibitors; details: inhibitor added into sphere culture medium, observed after 7 days
# Description: (§1) For sphere formation, pancreatic cancer cell lines were plated 1000 cell/mL in serum-free DMEM/F12 supplemented with EGF (10 ng/mL, R&D Systems Inc., Minneapolis, Minn.), bFGF ([…], R&D Systems Inc.), 1 ITS (insulin transferring selenium, Gibco) and 0.5% FBS on Corning Costar ultra-low attached 6-well culture dishes (Corning Inc., Corning, N.Y., US), and cultured for 7-10 days. The adherent cells cultured with the same media by attaching on culture plates (Nalgene Nunc Int., Rochester, N.Y.) were used as a control group.
# Well-known stem cell signaling inhibitors DAPT (Calbiochem, San Diego, Calif., USA), Cyclopamine-KAAD (Calbiochem, San Diego, Calif., USA), LiCl (Sigma-Aldrich, Inc., St. Louis, Mo.), ATRA (Sigma-Aldrich, Inc., St. Louis, Mo.), OV (Sigma-Aldrich, Inc., St. Louis, Mo.) were added added into sphere culture medium, and cultured. After 7 days, sphere formation was observed.
# GLRX3 = GLRX3 mRNA and protein expression in GLRX3 knock-down cell line (PCR and western blot); details: Hpac cell line transfected with shRNA, puromycin-selected clones, vs control shRNA
# Description: (§2) Selection marker was puromycin ([…]).
# Hpac cell line [1] = test: Sphere culture of GLRX3 knock-down cell line; details: sphere-cultured for 7 days, vs control cell line
# Description: as §1
# (§3) For clonogenic assay, 0.6% agar in cell media was boiled, hardened on 24-well plate (lower layer media). The cells at density of 1000 cell/well and 0.3% agar-cell media (upper layer media) were mixed, and hardened on lower layer media. Once 0.3% upper layer media was hardened, 500 μL/well of media was added on the upper layer media. Adding the media every third day, the cells were cultured for 3-4 weeks. Afterward, the media on agar was removed, stained with crystal violet to count the number of colony.
# Hpac cell line [2] = test: Doubling time assay (cell proliferation) of GLRX3 knock-down cell line; details: GLRX3 k/d cell line compared to the control, counted for 5 days
# Description: as §2
# Hpac cell line [3] = test: Wound-healing assay of GLRX3 knock-down cell line; details: GLRX3 k/d cell line compared to the control
# Description: as §2
# Hpac cell line [4] = test: Clonogenic assay of GLRX3 knock-down cell line; details: soft agar, 3-4 weeks, vs control cell line
# Description: as §3
# CFAPC-1 cells = test: Fluorescence-Activated Cell Sorting of CD24/CD44/ESA after GLRX3 siRNA transfection; details: 72 hours after transfection; decreased from 70.4% (control)
# Description: To inhibit GLRX3, siRNA (invitrogen Stealth™ siRNA duplex oligoribonucleotides) to GLRX3 was used. Sense siRNA sequence was UGAGGGAGUUCUUUAGCUAACUCUG, and antisense siRNA sequence was CAGAGUUAGCUAAAGAACUCCCUCA. Med GC (invitrogen) was used as negative control siRNA. CFAPC-1 cells were transfected with GLRX3 or negative control siRNA using RNAiMAX (invtirogen, Carlsbad, Calif., US), and incubated for 72 hours. The cells were treated with accutase (Sigma-Aldrich, St. Louis, Mo.) to prepare suspensions with the same number of single cells. Afterward, the cells were stained with PE-CD24 (BD Biosciences PharMingen, San Diego, Calif.), APC-CD44 (BD Biosciences PharMingen, San Diego, Calif.) and FITC-ESA (BD Biosciences PharMingen, San Diego, Calif.). Fluorescence-Activated Cell Sorting was carried out using BD LSR II (BD Biosciences, Franklin Lakes, N.J.) and analyzed by BD FACSDiva software.
compound,measurement,setting,value
CC1=C(/C=C/C(C)=C/C=C/C(C)=C/C(=O)O)C(C)(C)CCC1 [ATRA],ability to form sphere in Hpac-spheres,Hpac-spheres,completely inhibited or reduced
C[C@H](NC(=O)Cc1cc(F)cc(F)c1)C(=O)N[C@H](C(=O)OC(C)(C)C)c1ccccc1 [DAPT],ability to form sphere in Hpac-spheres,Hpac-spheres,completely inhibited or reduced
"CC1=C2C[C@H]3[C@@H](CC=C4CC(=O)CC[C@@]43C)[C@@H]2CC[C@]12O[C@@H]1C[C@H](C)CN(CCNC(=O)CCCCCNC(=O)CCc3ccccc3)[C@H]1[C@H]2C [KAAD, Cyclopamine-KAAD]",ability to form sphere in Hpac-spheres,Hpac-spheres,completely inhibited or reduced
[Cl-].[Li+] [LiCl],ability to form sphere in Hpac-spheres,Hpac-spheres,completely inhibited or reduced
[Na+].[Na+].[Na+].[O]=[V]([O-])([O-])[O-] [OV],ability to form sphere in Hpac-spheres,Hpac-spheres,completely inhibited or reduced
"shRNA to GLRX3: shRNA plasmid to GLRX3, sequence GTGGAAATTCTTCACAAACAT (SEQ ID NO:4), used to establish the GLRX3 knock-down Hpac line (guide GTGGAAATTCTTCACAAACAT; listed as Homo sapiens)",Expressions of mRNA and protein of GLRX3,GLRX3,significantly reduced
same,ability to form spheres,Hpac cell line [1],not formed
same,cell proliferation rate,Hpac cell line [2],decreased
same,cell migration activity,Hpac cell line [3],decreased
same,colonies formed (viability and proliferation),Hpac cell line [4],fewer colonies
"siRNA to GLRX3: Stealth siRNA duplex to GLRX3; sense UGAGGGAGUUCUUUAGCUAACUCUG (SEQ ID NOs:2 and 3) (chain 1 UGAGGGAGUUCUUUAGCUAACUCUG; chain 2 CAGAGUUAGCUAAAGAACUCCCUCA; listed as RNA, chemistry not given here; listed as Homo sapiens)",fraction of CD24+/CD44+/ESA+,CFAPC-1 cells,29.3%
